How the values were obtained:
[1] = tested on: N9; experiment: Antineuroinflammatory activity in mouse N9 cells assessed as inhibition of LPS-induced nitric oxide production after 24 hrs by Griess assay; assay type: functional, cell-based
[2] = tested on: N9; experiment: Cytotoxicity against LPS-induced mouse N9 cells assessed as decrease in cell viability at 1 to 100 ug/ml after 24 hrs by MTT assay; assay type: cell-based; conditions: n9, 24 h

Compound | inhibition [1] | Activity [2]
COc1ccc(CO)cc1O | Dose-dependent effect | Non-Toxic
COc1cc(OC)cc([C@@H]2OC[C@H]3[C@@H]2CO[C@H]3c2ccc(O)c(OC)c2)c1 | Dose-dependent effect | Non-Toxic
CC1=CC(C)(C)[C@@H](C)C1 | Dose-dependent effect | Non-Toxic
C=Cc1ccc(O)cc1OC | Dose-dependent effect | Non-Toxic
C[C@@H]1O[C@@H](OC[C@H]2O[C@@H](Oc3c(-c4ccc(O)c(O)c4)oc4cc(O)cc(O)c4c3=O)[C@H](O[C@@H]3O[C@@H](C)[C@H](O)[C@@H](O)[C@H]3O)[C@@H](O)[C@@H]2O)[C@H](O)[C@H](O)[C@H]1O | Dose-dependent effect | Non-Toxic
COc1ccc(-c2coc3c(OC)c(O)ccc3c2=O)cc1O | Dose-dependent effect | Non-Toxic
O=C(N[C@@H](Cc1ccccc1)C(=O)N[C@H](CO)Cc1ccccc1)c1ccccc1 | Dose-dependent effect | Non-Toxic
CC1=CC(=O)CC(C)(C)[C@@]1(O)/C=C/C(C)=C\C(=O)O [(+)-ABSCISIC ACID] | Dose-dependent effect | Non-Toxic
COc1cc([C@@H]2OC[C@@H]3[C@H]2CO[C@H]3c2ccc(O)c(OC)c2)ccc1O [(+)-PINORESINOL] | Dose-dependent effect | Non-Toxic
COc1cc([C@@H]2OC[C@@H]3[C@H]2CO[C@H]3c2cc(OC)c(O[C@@H]3O[C@H](CO)[C@@H](O)[C@H](O)[C@H]3O)c(OC)c2)cc(OC)c1O [ACANTHOSIDE B] | Dose-dependent effect | Non-Toxic
CC1=CC(=O)CC(C)(C)[C@@]1(O)/C=C/[C@@H](C)O [BLUMENOL A] | Dose-dependent effect | Non-Toxic
COc1ccc(-c2coc3cc(O)ccc3c2=O)cc1O [CALYCOSIN] | Dose-dependent effect | Non-Toxic
O=c1c(O[C@@H]2O[C@H](CO)[C@@H](O)[C@H](O)[C@H]2O)c(-c2ccc(O)c(O)c2)oc2cc(O)cc(O)c12 [ISOQUERCETIN] | Dose-dependent effect | Non-Toxic
COc1cc(-c2oc3cc(O)cc(O)c3c(=O)c2O)ccc1O [ISORHAMNETIN] | Dose-dependent effect | Non-Toxic
COc1ccc(-c2coc3cc(O)c(OC)cc3c2=O)cc1O [ODORATIN] | Dose-dependent effect | Non-Toxic
O=c1c(O)c(-c2ccc(O)c(O)c2)oc2cc(O)cc(O)c12 [QUERCETIN] | Dose-dependent effect | Non-Toxic
COc1cc([C@H]2OC[C@H]3[C@@H]2CO[C@@H]3c2cc(OC)c(O)c(OC)c2)cc(OC)c1O [SYRINGARESINOL] | Dose-dependent effect | Non-Toxic
